The record followed here is patent US10179782B2, “Substituted sulfonamide compounds” (Genentech, Inc., priority 2016, dated 2019).

The IC50 is the concentration at which inhibition is half-maximal.

The structures appear in SMILES notation.

T1 sequence (O75762 whole entry): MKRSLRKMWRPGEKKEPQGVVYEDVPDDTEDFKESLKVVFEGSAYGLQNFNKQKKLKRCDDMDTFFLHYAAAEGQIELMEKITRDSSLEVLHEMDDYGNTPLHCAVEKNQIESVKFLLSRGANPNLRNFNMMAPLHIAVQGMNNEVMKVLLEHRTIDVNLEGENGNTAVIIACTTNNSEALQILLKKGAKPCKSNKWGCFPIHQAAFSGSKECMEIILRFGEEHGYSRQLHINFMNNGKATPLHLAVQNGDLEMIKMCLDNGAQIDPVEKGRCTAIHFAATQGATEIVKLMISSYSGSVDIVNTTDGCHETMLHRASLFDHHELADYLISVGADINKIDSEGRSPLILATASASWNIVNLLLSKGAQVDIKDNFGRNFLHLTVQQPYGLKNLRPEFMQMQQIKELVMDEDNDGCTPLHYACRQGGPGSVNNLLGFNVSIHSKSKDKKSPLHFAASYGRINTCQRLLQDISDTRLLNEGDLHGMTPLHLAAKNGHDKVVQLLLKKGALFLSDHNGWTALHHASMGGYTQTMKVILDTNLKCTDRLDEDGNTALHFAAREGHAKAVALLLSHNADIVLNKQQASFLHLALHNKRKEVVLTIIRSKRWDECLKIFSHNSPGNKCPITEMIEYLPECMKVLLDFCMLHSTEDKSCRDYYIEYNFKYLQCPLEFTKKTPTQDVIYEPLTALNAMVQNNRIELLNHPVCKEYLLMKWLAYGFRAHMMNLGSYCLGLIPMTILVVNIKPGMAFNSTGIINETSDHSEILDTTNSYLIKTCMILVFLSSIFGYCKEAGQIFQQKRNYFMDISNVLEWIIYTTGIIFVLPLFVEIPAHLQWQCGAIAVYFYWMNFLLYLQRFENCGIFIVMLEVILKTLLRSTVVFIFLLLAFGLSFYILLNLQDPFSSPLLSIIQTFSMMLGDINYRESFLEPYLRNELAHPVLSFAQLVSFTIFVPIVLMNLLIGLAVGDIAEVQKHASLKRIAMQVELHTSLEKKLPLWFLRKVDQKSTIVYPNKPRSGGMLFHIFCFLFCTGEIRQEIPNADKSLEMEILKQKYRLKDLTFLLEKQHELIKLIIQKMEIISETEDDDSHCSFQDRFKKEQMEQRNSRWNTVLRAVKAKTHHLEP

This assay addresses T1, human TRPA1 (Homo sapiens, UniProt O75762).
T1 construct: expressed in transfected cells; host or cells: CHO cells
Nature of the assay: TRPA1 FLIPR Tetra calcium influx assay in CHO cells (block of cinnamaldehyde-induced calcium influx). The format is cell-based. To be noted: Table 2; CHO cells expressing TRPA1; agonist cinnamaldehyde 75 uM; 20 min compound incubation; Hill coefficient fixed to 1.5; read-out: hTRPA1 CHO Ca2+ AUC EVO (IC50). As to the method: IC50s (effective concentration) of compounds on the human and rat TRPA1 channels were determined using a FLIPR Tetra instrument. CHO cells expressing TRPA1 were plated into 384-well plates, incubated overnight at 37 C, and loaded with BD calcium indicator dye for 1 hr at 37° C. followed by 15 minutes at room temperature. The assay buffer was Hank's Balanced Salt Solution (HBSS) containing 20 mM HEPES (pH readjusted to 7.4) along with 0.02% BSA.
Following dye load and plate cool down, compounds were added to the cells using FLIPR Tetra. Plates were then incubated with compounds for 20 minutes at room temperature prior to adding agonist. Following this incubation, ˜EC80 concentration of cinnamaldehyde (75 uM for human TRPA1 and 45 uM for rat TRPA1) was added to active the channels and block of cinnamaldehyde induced calcium influx was measured.
IC50s were fit with a standard Hill function, keeping the Hill coefficient (n) fixed to 1.5. Fixing the Hill coefficient will generally reduce variability of the IC50 determination. The IC50s were individually examined to make sure the MIN and MAX points were set correctly prior to validation of the results.
For the compound `O=C(NCc1cc(-c2cnc(C(F)(F)F)nc2)ncc1F)[C@@H]1C[C@@H]2C[C@@H]2N1S(=O)(=O)c1ccc(F)cc1` [Example 15, (1S,3S,5S)-2-(4-fluorophenyl)sulfonyl-N-[[5-fluoro-2-[2-(trifluoromethyl)pyrimidin-5-yl]-4-pyridyl]methyl]-2-azabicyclo[3.1.0]hexane-3-carboxamide], the IC50 is 0.6 nM.
`O=C(NCc1cc(-c2cnc(C(F)(F)F)nc2)ccc1F)[C@@H]1C[C@@H]2C[C@@H]2N1S(=O)(=O)c1ccc(F)cc1` [Example 16, (1S,3S,5S)-2-(4-fluorophenyl)sulfonyl-N-[[2-fluoro-5-[2-(trifluoromethyl)pyrimidin-5-yl]phenyl]methyl]-2-azabicyclo[3.1.0]hexane-3-carboxamide]: the IC50 came to 2.12 nM.
On to `C[C@H]1CC[C@@H](C(=O)NCc2cc(-c3cnc(C(F)(F)F)nc3)ncc2F)N1S(=O)(=O)c1ccc(F)cc1` [Example 17, (2S,5S)-1-(4-fluorophenyl)sulfonyl-N-[[5-fluoro-2-[2-(trifluoromethyl)pyrimidin-5-yl]-4-pyridyl]methyl]-5-methyl-pyrrolidine-2-carboxamide], for which the IC50 was 1.37 nM.
In the case of `O=C(NCc1cc(-c2cnc(C(F)(F)F)nc2)ncn1)[C@@H]1C[C@@H]2C[C@@H]2N1S(=O)(=O)c1ccc(F)cc1` [Example 18, (1S,3S,5S)-2-(4-fluorophenyl)sulfonyl-N-[[6-[2-(trifluoromethyl)pyrimidin-5-yl]pyrimidin-4-yl]methyl]-2-azabicyclo[3.1.0]hexane-3-carboxamide] it was 29.8 nM; in that of `C[C@H]1CC[C@@H](C(=O)NCc2cc(-c3cnc(C(F)(F)F)nc3)ncn2)N1S(=O)(=O)c1ccc(F)cc1` [Example 19, (2S,5S)-1-(4-fluorophenyl)sulfonyl-5-methyl-N-[[6-[2-(trifluoromethyl)pyrimidin-5-yl]pyrimidin-4-yl]methyl]pyrrolidine-2-carboxamide], 5.22 nM; in that of `CC[C@H]1CC[C@@H](C(=O)NCc2cc(-c3cnc(C(F)(F)F)nc3)ncn2)N1S(=O)(=O)c1ccc(F)cc1` [Example 20, (2S,5S)-5-ethyl-1-(4-fluorophenyl)sulfonyl-N-[[6-[2-(trifluoromethyl)pyrimidin-5-yl]pyrimidin-4-yl]methyl]pyrrolidine-2-carboxamide], 10.9 nM.
With `O=C(NCc1cc(-c2cnc(C(F)(F)F)nc2)ncn1)[C@@H]1CC[C@H](C2CC2)N1S(=O)(=O)c1ccc(F)cc1` [Example 21, (2S,5R)-5-cyclopropyl-1-(4-fluorophenyl)sulfonyl-N-[[6-[2-(trifluoromethyl)pyrimidin-5-yl]pyrimidin-4-yl]methyl]pyrrolidine-2-carboxamide] the figure was 71.3 nM; with `O=C(NCc1cc(-c2cnc(C(F)(F)F)nc2)ncn1)[C@H]1CC[C@@H](C(F)(F)F)N1S(=O)(=O)c1ccc(F)cc1` [Example 22, (2R,5S)-1-(4-fluorophenyl)sulfonyl-5-(trifluoromethyl)-N-[[6-[2-(trifluoromethyl)pyrimidin-5-yl]pyrimidin-4-yl]methyl]pyrrolidine-2-carboxamide], 3610 nM.
In the case of `C[C@H]1[C@H](F)C[C@@H](C(=O)NCc2cc(-c3ccc(C(F)(F)F)nc3)ncn2)N1S(=O)(=O)c1ccc(F)cc1` [Example 23, (2S,4R,5S)-4-fluoro-1-(4-fluorophenyl)sulfonyl-5-methyl-N-[[6-[6-(trifluoromethyl)-3-pyridyl]pyrimidin-4-yl]methyl]pyrrolidine-2-carboxamide] it was 85.6 nM; in that of `C[C@H]1[C@H](F)C[C@@H](C(=O)NCc2cc(-c3cnc(C(F)(F)F)nc3)ncc2OC(F)F)N1S(=O)(=O)c1ccc(F)cc1` [Example 24, (2S,4R,5S)-N-((5-(difluoromethoxy)-2-(2-(trifluoromethyl)pyrimidin-5-yl)pyridin-4-yl)methyl)-4-fluoro-1-(4-fluorophenylsulfonyl)-5-methylpyrrolidine-2-carboxamide], 19.3 nM; in that of `C[C@H]1[C@H](F)C[C@@H](C(=O)NCc2cc(N3CC(OC(F)(F)F)C3)ncn2)N1S(=O)(=O)c1ccc(F)cc1` [Example 25, (2S,4R,5S)-4-fluoro-1-(4-fluorophenylsulfonyl)-5-methyl-N-((6-(3-(trifluoromethoxy)azetidin-1-yl)pyrimidin-4-yl)methyl)pyrrolidine-2-carboxamide], 2400 nM.
As to `C[C@H]1[C@H](F)C[C@@H](C(=O)NCc2cc(-c3ccc(C(F)(F)F)nc3)ncc2F)N1S(=O)(=O)c1ccc(F)cc1` [Example 26, (2S,4R,5S)-4-fluoro-N-((5-fluoro-6′-(trifluoromethyl)-2,3′-bipyridin-4-yl)methyl)-1-(4-fluorophenylsulfonyl)-5-methylpyrrolidine-2-carboxamide], the IC50 came out at 41.2 nM.
Regarding `C[C@H]1[C@H](F)C[C@@H](C(=O)NCc2cc(-c3cnc(C(F)(F)F)nc3)ncc2F)N1S(=O)(=O)c1ccccc1` [Example 27, (2S,4R,5S)-4-fluoro-N-((5-fluoro-2-(2-(trifluoromethyl)pyrimidin-5-yl)pyridin-4-yl)methyl)-5-methyl-1-(phenylsulfonyl)pyrrolidine-2-carboxamide], the IC50 worked out at 46.4 nM.
In the case of `C[C@H]1[C@H](F)C[C@@H](C(=O)NCc2cc(-c3cnc(C(F)(F)F)nc3)ncc2F)N1S(=O)(=O)c1ccc(F)c(F)c1` [Example 28, (2S,4R,5S)-1-(3,4-difluorophenylsulfonyl)-4-fluoro-N-((5-fluoro-2-(2-(trifluoromethyl)pyrimidin-5-yl)pyridin-4-yl)methyl)-5-methylpyrrolidine-2-carboxamide] it was 6.96 nM; in that of `C[C@H]1[C@H](F)C[C@@H](C(=O)NCc2cc(-c3cnc(C(F)(F)F)nc3)ccn2)N1S(=O)(=O)c1ccc(F)cc1` [Example 29, (2S,4R,5S)-4-fluoro-1-(4-fluorophenylsulfonyl)-5-methyl-N-((4-(2-(trifluoromethyl)pyrimidin-5-yl)pyridin-2-yl)methyl)pyrrolidine-2-carboxamide], 113 nM.
In the case of `C[C@H]1[C@H](F)C[C@@H](C(=O)NCc2cc(-c3cnc(C(F)(F)F)nc3)c(F)cc2C#N)N1S(=O)(=O)c1ccc(F)cc1` [Example 30, (2S,4R,5S)-N-(2-cyano-4-fluoro-5-(2-(trifluoromethyl)pyrimidin-5-yl)benzyl)-4-fluoro-1-(4-fluorophenylsulfonyl)-5-methylpyrrolidine-2-carboxamide] it was 8.65 nM; in that of `C[C@H]1[C@H](F)C[C@@H](C(=O)NCc2cc(-c3ccc(C(F)(F)F)cn3)ccn2)N1S(=O)(=O)c1ccc(F)cc1` [Example 31, (2S,4R,5S)-4-fluoro-1-(4-fluorophenylsulfonyl)-5-methyl-N-((5-(trifluoromethyl)-2,4′-bipyridin-2′-yl)methyl)pyrrolidine-2-carboxamide], 58.7 nM.
In the case of `C[C@H]1[C@H](F)C[C@@H](C(=O)NCc2cc(-c3cnc(C(F)(F)F)nc3)c(Cl)cn2)N1S(=O)(=O)c1ccc(F)cc1` [Example 32, (2S,4R,5S)-N-((5-chloro-4-(2-(trifluoromethyl)pyrimidin-5-yl)pyridin-2-yl)methyl)-4-fluoro-1-(4-fluorophenylsulfonyl)-5-methylpyrrolidine-2-carboxamide] it was 10.4 nM.
Regarding `C[C@H]1[C@H](F)C[C@@H](C(=O)NCc2cc(-c3cnc(C(F)(F)F)nc3)ccc2C#N)N1S(=O)(=O)c1ccc(F)cc1` [Example 33, (2S,4R,5S)-N-([2-cyano-5-[2-(trifluoromethyl)pyrimidin-5-yl]phenyl]methyl)-4-fluoro-1-[(4-fluorobenzene)sulfonyl]-5-methylpyrrolidine-2-carboxamide], the IC50 was 3.58 nM.
In the case of `C[C@H]1[C@H](F)C[C@@H](C(=O)NCc2cc(-c3cnc(C(F)(F)F)nc3)c(F)cn2)N1S(=O)(=O)c1ccc(F)cc1` [Example 34, (2S,4R,5S)-4-fluoro-N-([5-fluoro-4-[2-(trifluoromethyl)pyrimidin-5-yl]pyridin-2-yl]methyl)-1-[(4-fluorobenzene)sulfonyl]-5-methylpyrrolidine-2-carboxamide] it was 38.8 nM; in that of `COc1cnc(CNC(=O)[C@@H]2C[C@@H](F)[C@H](C)N2S(=O)(=O)c2ccc(F)cc2)cc1-c1cnc(C(F)(F)F)nc1` [Example 35, (2S,4R,5S)-4-fluoro-1-[(4-fluorobenzene)sulfonyl]-N-([5-methoxy-4-[2-(trifluoromethyl)pyrimidin-5-yl]pyridin-2-yl]methyl)-5-methylpyrrolidine-2-carboxamide], 53.1 nM.
In the case of `C[C@H]1[C@H](F)C[C@@H](C(=O)NCc2cc(-c3ccc(C(F)(F)F)nc3)c(F)cn2)N1S(=O)(=O)c1ccc(F)cc1` [Example 36, (2S,4R,5S)-4-fluoro-N-([5-fluoro-4-[6-(trifluoromethyl)pyridin-3-yl]pyridin-2-yl]methyl)-1-[(4-fluorobenzene)sulfonyl]-5-methylpyrrolidine-2-carboxamide] it was 26 nM.
With `C[C@H]1[C@H](F)C[C@@H](C(=O)NCc2cc(-c3cnc(C(F)(F)F)nc3)nc(C3CC3)n2)N1S(=O)(=O)c1ccc(F)cc1` [Example 37, (2S,4R,5S)-N-([2-cyclopropyl-6-[2-(trifluoromethyl)pyrimidin-5-yl]pyrimidin-4-yl]methyl)-4-fluoro-1-[(4-fluorobenzene)sulfonyl]-5-methylpyrrolidine-2-carboxamide] the figure was 5.4 nM.
